Laboratory results as given in PMC3429062, “A Novel Member of the Trehalose Transporter Family Functions as an H^+-Dependent Trehalose Transporter in the Reabsorption of Trehalose in Malpighian Tubules” (Frontiers in Physiology, 2012).

Biological target: T1, PvTRET1 (Polypedilum vanderplanki, UniProt A5LGM7)
T1 construct: gene Tret1; expressed from injected cRNA in Xenopus oocytes; construct described previously
T1 sequence (A5LGM7 1-504): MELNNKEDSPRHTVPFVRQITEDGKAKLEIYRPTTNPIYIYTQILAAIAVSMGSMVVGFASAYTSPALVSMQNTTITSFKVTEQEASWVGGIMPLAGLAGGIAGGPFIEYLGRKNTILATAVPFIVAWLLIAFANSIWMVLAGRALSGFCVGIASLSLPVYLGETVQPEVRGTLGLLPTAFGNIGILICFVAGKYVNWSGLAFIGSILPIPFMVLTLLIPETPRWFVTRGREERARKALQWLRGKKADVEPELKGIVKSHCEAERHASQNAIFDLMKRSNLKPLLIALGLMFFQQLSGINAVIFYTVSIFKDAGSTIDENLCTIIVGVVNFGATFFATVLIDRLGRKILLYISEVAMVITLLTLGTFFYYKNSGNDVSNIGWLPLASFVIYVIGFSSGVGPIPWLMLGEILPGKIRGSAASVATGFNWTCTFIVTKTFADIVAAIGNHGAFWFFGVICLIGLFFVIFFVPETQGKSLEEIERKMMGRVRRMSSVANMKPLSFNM
Assay: uptake into cRNA-injected Xenopus oocytes, HPLC
Type: cell-based
Conditions: 105 mM trehalose, various pH; transport

For `OC[C@H]1O[C@H](O[C@H]2O[C@H](CO)[C@@H](O)[C@H](O)[C@H]2O)[C@H](O)[C@@H](O)[C@@H]1O` [trehalose], the trehalose uptake was “Trehalose uptake into Xenopus oocytes via PvTRET1 at various pH values”.
